The data set has as its target HBV. As to conditions: ASO.

“And” between values parts separate entries of the source, which are not always exact repeats. Identical values can stand only once. HELM strings list units from the 5' end as sugar, base in round brackets, then linkage (d deoxyribose, r ribose, m 2'-O-methyl, p phosphodiester). Methylation of C is not given here. [moe] = 2'-O-(2-methoxyethyl) (MOE); [cEt] = constrained ethyl (cEt); [sp] = phosphorothioate linkage

The values that follow come from the OligoGym collection.

As for “RNA1{[moe](T)[sp].[moe](T)[sp].d(A)[sp].d(T)[sp].d(G)[sp].d(C)[sp].d(C)[sp].d(T)[sp].d(A)[sp].d(C)[sp].d(A)[sp].[moe](G)[sp].[moe](C)[sp].[moe](C)[sp].[moe](T)[sp].[moe](C)[sp].[moe](C)}$$$$V2.0”, under “HepG2, 0.07 µM”, the target mRNA inhibition is 56% and 57%.

“RNA1{[moe](G)[sp].[moe](C)[sp].[moe](A)[sp].[moe](G)[sp].d(A)[sp].d(G)[sp].d(G)[sp].d(T)[sp].d(G)[sp].d(A)[sp].d(A)[sp].d(G)[sp].d(C)[sp].[moe](G)[sp].[moe](A)[sp].[moe](A)}$$$$V2.0” showed a target mRNA inhibition (HepG2, 0.07 µM) of 60%. In the case of “RNA1{[moe](A)[sp].[cEt](C)[sp].[cEt](C)[sp].d(A)[sp].d(C)[sp].d(T)[sp].d(G)[sp].d(A)[sp].d(A)[sp].d(C)[sp].d(A)[sp].d(A)[sp].d(A)[sp].[cEt](T)[sp].[cEt](G)[sp].[moe](G)}$$$$V2.0”, the target mRNA inhibition (HepG2, 0.07 µM) was 70% and 57%. “RNA1{[cEt](A)[sp].[moe](G)[sp].[cEt](C)[sp].d(G)[sp].d(A)[sp].d(A)[sp].d(G)[sp].d(T)[sp].d(G)[sp].d(C)[sp].d(A)[sp].[moe](C)[sp].[moe](A)[sp].[moe](C)[sp].[moe](G)[sp].[moe](G)}$$$$V2.0”: the target mRNA inhibition stood at 37% (HepG2, 0.009375 µM); 39% (HepG2, 0.01875 µM); 59% (HepG2, 0.0375 µM); 72% (HepG2, 0.075 µM); 86% (HepG2, 0.15 µM); 90% (HepG2, 0.3 µM). Turning to “RNA1{[moe](T)[sp].[moe](G)[sp].d(A)[sp].d(A)[sp].d(G)[sp].d(C)[sp].d(G)[sp].d(A)[sp].d(A)[sp].d(G)[sp].d(T)[sp].[moe](G)[sp].[moe](C)[sp].[moe](A)[sp].[moe](C)[sp].[moe](A)}$$$$V2.0”, for the setting “HepG2, 0.07 µM”, the target mRNA inhibition was 69% and 54%. As for “RNA1{[moe](C)[sp].[cEt](A)[sp].[cEt](A)[sp].d(T)[sp].d(T)[sp].d(T)[sp].d(A)[sp].d(T)[sp].d(G)[sp].d(C)[sp].d(C)[sp].d(T)[sp].d(A)[sp].[cEt](C)[sp].[cEt](A)[sp].[moe](G)}$$$$V2.0”, the target mRNA inhibition (HepG2, 0.07 µM) is 49% and 41%. On to “RNA1{[moe](C)[sp].[moe](G)[sp].[moe](T)[sp].[moe](G)[sp].[moe](C)[sp].d(A)[sp].d(G)[sp].d(A)[sp].d(G)[sp].d(G)[sp].d(T)[sp].d(G)[sp].d(A)[sp].d(A)[sp].[moe](G)[sp].[moe](C)}$$$$V2.0”, for which, for the setting “HepG2, 0.07 µM”, the target mRNA inhibition was 59% and 51%.

Consider “RNA1{[moe](A)[sp].[moe](A)[sp].[moe](C)[sp].[moe](C)[sp].[moe](A)[sp].[moe](C)[sp].d(T)[sp].d(G)[sp].d(A)[sp].d(A)[sp].d(C)[sp].d(A)[sp].d(A)[sp].d(A)[sp].d(T)[sp].[moe](G)[sp].[moe](G)}$$$$V2.0”, for which the target mRNA inhibition (HepG2, 0.07 µM) was 60% and 45%. “RNA1{[moe](A)[sp].[cEt](C)[sp].[cEt](C)[sp].d(A)[sp].d(C)[sp].d(A)[sp].d(T)[sp].d(C)[sp].d(A)[sp].d(T)[sp].d(C)[sp].d(C)[sp].d(A)[sp].[cEt](T)[sp].[cEt](A)[sp].[moe](T)}$$$$V2.0”: the target mRNA inhibition (HepG2, 0.07 µM) is 35% and 54%. Regarding “RNA1{[moe](A)[sp].[moe](A)[sp].[moe](C)[sp].[moe](T)[sp].d(G)[sp].d(G)[sp].d(A)[sp].d(G)[sp].d(C)[sp].d(C)[sp].d(A)[sp].d(C)[sp].d(C)[sp].[moe](A)[sp].[moe](G)[sp].[moe](C)[sp].[moe](A)}$$$$V2.0”, the target mRNA inhibition (HepG2, 0.07 µM) was 64% and 58%. Regarding “RNA1{[moe](G)[sp].[moe](C)[sp].[moe](A)[sp].d(G)[sp].d(A)[sp].d(G)[sp].d(G)[sp].d(T)[sp].d(G)[sp].d(A)[sp].d(A)[sp].d(G)[sp].[moe](C)[sp].[moe](G)[sp].[moe](A)[sp].[moe](A)[sp].[moe](G)}$$$$V2.0”, the target mRNA inhibition (HepG2, 0.07 µM) was 75% and 66%.

For the substance “RNA1{[moe](C)[sp].[moe](G)[sp].d(C)[sp].d(A)[sp].d(G)[sp].d(T)[sp].d(A)[sp].d(T)[sp].d(G)[sp].d(G)[sp].d(A)[sp].[moe](T)[sp].[moe](C)[sp].[moe](G)[sp].[moe](G)[sp].[moe](C)[sp].[moe](A)}$$$$V2.0”, the target mRNA inhibition (HepG2, 0.07 µM) is 82% and 80%. Same read-out and setting: to “RNA1{[moe](G)[sp].[moe](A)[sp].[moe](A)[sp].d(C)[sp].d(T)[sp].d(G)[sp].d(G)[sp].d(A)[sp].d(G)[sp].d(C)[sp].d(C)[sp].d(A)[sp].[moe](C)[sp].[moe](C)[sp].[moe](A)[sp].[moe](G)[sp].[moe](C)}$$$$V2.0” belongs 65% and 51%.

Take “RNA1{[moe](A)[sp].[moe](C)[sp].[moe](C)[sp].[moe](A)[sp].[moe](C)[sp].d(T)[sp].d(G)[sp].d(A)[sp].d(A)[sp].d(C)[sp].d(A)[sp].d(A)[sp].d(A)[sp].d(T)[sp].[moe](G)[sp].[moe](G)[sp].[moe](C)}$$$$V2.0”: the target mRNA inhibition (HepG2, 0.07 µM) is 59% and 61%. In the case of “RNA1{[moe](G)[sp].[moe](C)[sp].[moe](A)[sp].d(C)[sp].d(T)[sp].d(A)[sp].d(G)[sp].d(T)[sp].d(A)[sp].d(A)[sp].d(A)[sp].d(C)[sp].[moe](T)[sp].[moe](G)[sp].[moe](A)[sp].[moe](G)[sp].[moe](C)}$$$$V2.0”, the target mRNA inhibition (HepG2, 0.07 µM) was 74% and 68%.

As for “RNA1{[moe](G)[sp].[cEt](A)[sp].d(A)[sp].d(G)[sp].d(C)[sp].d(G)[sp].d(A)[sp].d(A)[sp].d(G)[sp].d(T)[sp].d(G)[sp].d(C)[sp].[cEt](A)[sp].[moe](C)[sp].[cEt](A)[sp].[moe](C)}$$$$V2.0”, the target mRNA inhibition (HepG2, 0.07 µM) is 74% and 76%.

On to “RNA1{[moe](T)[sp].[moe](C)[sp].[moe](C)[sp].d(G)[sp].d(C)[sp].d(A)[sp].d(G)[sp].d(T)[sp].d(A)[sp].d(T)[sp].d(G)[sp].d(G)[sp].[moe](A)[sp].[moe](T)[sp].[moe](C)[sp].[moe](G)}$$$$V2.0”, for which, where the note is “HepG2, 0.07 µM”, the target mRNA inhibition was 65% and 72%. Turning to “RNA1{[moe](G)[sp].[moe](C)[sp].[moe](A)[sp].[moe](T)[sp].d(A)[sp].d(G)[sp].d(C)[sp].d(A)[sp].d(G)[sp].d(C)[sp].d(A)[sp].d(G)[sp].d(G)[sp].[moe](A)[sp].[moe](T)[sp].[moe](G)}$$$$V2.0”, the target mRNA inhibition (HepG2, 0.07 µM) was 44% and 56%. On to “RNA1{[moe](G)[sp].[moe](G)[sp].[moe](A)[sp].d(G)[sp].d(T)[sp].d(T)[sp].d(C)[sp].d(C)[sp].d(G)[sp].d(C)[sp].d(A)[sp].d(G)[sp].d(T)[sp].[cEt](A)[sp].[cEt](T)[sp].[cEt](G)}$$$$V2.0”, for which the target mRNA inhibition reads like this: (HepG2, 0.0092593 µM) 0%; (HepG2, 0.0277778 µM) 25%; (HepG2, 0.07 µM) 74% and 82%; (HepG2, 0.0833333 µM) 53%; (HepG2, 0.25 µM) 72%. As for “RNA1{[moe](A)[sp].[moe](C)[sp].[moe](T)[sp].[moe](A)[sp].[moe](G)[sp].d(T)[sp].d(A)[sp].d(A)[sp].d(A)[sp].d(C)[sp].d(T)[sp].d(G)[sp].d(A)[sp].d(G)[sp].[moe](C)[sp].[moe](C)}$$$$V2.0”, the target mRNA inhibition (HepG2, 0.07 µM) is 64% and 66%. For the substance “RNA1{[moe](A)[sp].[moe](G)[sp].d(T)[sp].d(T)[sp].d(C)[sp].d(C)[sp].d(G)[sp].d(C)[sp].d(A)[sp].d(G)[sp].d(T)[sp].[moe](A)[sp].[moe](T)[sp].[moe](G)[sp].[moe](G)[sp].[moe](A)}$$$$V2.0”, for the setting “HepG2, 0.07 µM”, the target mRNA inhibition is 63% and 64%.

On to “RNA1{[moe](G)[sp].[moe](A)[sp].[moe](T)[sp].d(G)[sp].d(A)[sp].d(G)[sp].d(G)[sp].d(C)[sp].d(A)[sp].d(T)[sp].d(A)[sp].d(G)[sp].[moe](C)[sp].[moe](A)[sp].[moe](G)[sp].[moe](C)}$$$$V2.0”, for which the target mRNA inhibition (HepG2, 0.07 µM) was 39% and 38%. Same read-out and setting: to “RNA1{[moe](C)[sp].[cEt](T)[sp].d(G)[sp].d(G)[sp].d(A)[sp].d(G)[sp].d(C)[sp].d(C)[sp].d(A)[sp].d(C)[sp].d(C)[sp].d(A)[sp].[cEt](G)[sp].[moe](C)[sp].[cEt](A)[sp].[moe](G)}$$$$V2.0” belongs 56%; to “RNA1{[moe](A)[sp].[moe](A)[sp].[moe](C)[sp].[moe](T)[sp].[moe](G)[sp].[moe](G)[sp].d(A)[sp].d(G)[sp].d(C)[sp].d(C)[sp].d(A)[sp].d(C)[sp].d(C)[sp].d(A)[sp].d(G)[sp].[moe](C)[sp].[moe](A)}$$$$V2.0”, 70% and 50%. Same read-out and setting: to “RNA1{[moe](A)[sp].[moe](T)[sp].[moe](G)[sp].[moe](A)[sp].d(G)[sp].d(G)[sp].d(C)[sp].d(A)[sp].d(T)[sp].d(A)[sp].d(G)[sp].d(C)[sp].d(A)[sp].[moe](G)[sp].[moe](C)[sp].[moe](A)}$$$$V2.0” belongs 54% and 49%; to “RNA1{[moe](A)[sp].[moe](C)[sp].[moe](G)[sp].d(T)[sp].d(G)[sp].d(C)[sp].d(A)[sp].d(G)[sp].d(A)[sp].d(G)[sp].d(G)[sp].d(T)[sp].d(G)[sp].[cEt](A)[sp].[cEt](A)[sp].[cEt](G)}$$$$V2.0”, 74% and 78%.

With “RNA1{[moe](A)[sp].[moe](C)[sp].d(T)[sp].d(G)[sp].d(G)[sp].d(A)[sp].d(G)[sp].d(C)[sp].d(C)[sp].d(A)[sp].d(C)[sp].[moe](C)[sp].[moe](A)[sp].[moe](G)[sp].[moe](C)[sp].[moe](A)}$$$$V2.0”, where the note is “HepG2, 0.07 µM”, the target mRNA inhibition is 53% and 42%. As for “RNA1{[moe](A)[sp].[moe](C)[sp].[moe](G)[sp].[moe](G)[sp].[moe](G)[sp].[moe](C)[sp].d(A)[sp].d(A)[sp].d(C)[sp].d(A)[sp].d(T)[sp].d(A)[sp].d(C)[sp].d(C)[sp].d(T)[sp].[moe](T)[sp].[moe](G)}$$$$V2.0”, the target mRNA inhibition (HepG2, 0.07 µM) worked out at 0%. Still for that read-out and setting: to “RNA1{[moe](G)[sp].[moe](T)[sp].[moe](G)[sp].[moe](C)[sp].[moe](A)[sp].d(G)[sp].d(A)[sp].d(G)[sp].d(G)[sp].d(T)[sp].d(G)[sp].d(A)[sp].d(A)[sp].d(G)[sp].[moe](C)[sp].[moe](G)}$$$$V2.0” belongs 57% and 51%.
